# pIC50: −log10 of the molar value. Values joined by “and” are separate entries in the source; they are usually repeats but may differ in a detail not shown here. Identical values can stand only once. Like-named read-outs stand apart in the source and are kept apart here.
# Key:
# [1] = molecular target: c-Kit (Homo sapiens, UniProt P10721); assay: c-Kit tyrosine kinase inhibition, Caliper screening (fluorescent substrate phosphorylation, electrophoretic separation); type: biochemical; details: for pIC50: averages of replicate wells; for c-Kit Fold: fold of IC50 relative to sunitinib
# [2] = molecular target: VEGFR-2 (Homo sapiens, UniProt P35968); assay: VEGFR-2 kinase inhibition, Caliper screening (fluorescent substrate phosphorylation, electrophoretic separation); details: for VEGFR-2 Fold: fold of IC50 relative to sunitinib
# [3] = molecular target: RET (Homo sapiens, UniProt P07949); assay: RET kinase inhibition, Caliper screening (fluorescent substrate phosphorylation, electrophoretic separation); details: for RET Fold: fold of IC50 relative to sunitinib
# [4] = concentration 1.0E−05 (unit not given)
# [5] = concentration 1.0E−06 (unit not given)
# [6] = concentration 1.0E−07 (unit not given)
# [7] = concentration 1.0E−08 (unit not given)
# [8] = concentration 1.0E−09 (unit not given)
# [9] = concentration 1.0E−10 (unit not given)
# [10] = concentration 3.0E−05 (unit not given)
# [11] = concentration 3.0E−06 (unit not given)
# [12] = concentration 3.0E−07 (unit not given)
# [13] = concentration 3.0E−08 (unit not given)
# [14] = concentration 3.0E−09 (unit not given)
# [15] = concentration 3.0E−10 (unit not given)
# Sequence of VEGFR-2 (P35968 20-1356, species assumed): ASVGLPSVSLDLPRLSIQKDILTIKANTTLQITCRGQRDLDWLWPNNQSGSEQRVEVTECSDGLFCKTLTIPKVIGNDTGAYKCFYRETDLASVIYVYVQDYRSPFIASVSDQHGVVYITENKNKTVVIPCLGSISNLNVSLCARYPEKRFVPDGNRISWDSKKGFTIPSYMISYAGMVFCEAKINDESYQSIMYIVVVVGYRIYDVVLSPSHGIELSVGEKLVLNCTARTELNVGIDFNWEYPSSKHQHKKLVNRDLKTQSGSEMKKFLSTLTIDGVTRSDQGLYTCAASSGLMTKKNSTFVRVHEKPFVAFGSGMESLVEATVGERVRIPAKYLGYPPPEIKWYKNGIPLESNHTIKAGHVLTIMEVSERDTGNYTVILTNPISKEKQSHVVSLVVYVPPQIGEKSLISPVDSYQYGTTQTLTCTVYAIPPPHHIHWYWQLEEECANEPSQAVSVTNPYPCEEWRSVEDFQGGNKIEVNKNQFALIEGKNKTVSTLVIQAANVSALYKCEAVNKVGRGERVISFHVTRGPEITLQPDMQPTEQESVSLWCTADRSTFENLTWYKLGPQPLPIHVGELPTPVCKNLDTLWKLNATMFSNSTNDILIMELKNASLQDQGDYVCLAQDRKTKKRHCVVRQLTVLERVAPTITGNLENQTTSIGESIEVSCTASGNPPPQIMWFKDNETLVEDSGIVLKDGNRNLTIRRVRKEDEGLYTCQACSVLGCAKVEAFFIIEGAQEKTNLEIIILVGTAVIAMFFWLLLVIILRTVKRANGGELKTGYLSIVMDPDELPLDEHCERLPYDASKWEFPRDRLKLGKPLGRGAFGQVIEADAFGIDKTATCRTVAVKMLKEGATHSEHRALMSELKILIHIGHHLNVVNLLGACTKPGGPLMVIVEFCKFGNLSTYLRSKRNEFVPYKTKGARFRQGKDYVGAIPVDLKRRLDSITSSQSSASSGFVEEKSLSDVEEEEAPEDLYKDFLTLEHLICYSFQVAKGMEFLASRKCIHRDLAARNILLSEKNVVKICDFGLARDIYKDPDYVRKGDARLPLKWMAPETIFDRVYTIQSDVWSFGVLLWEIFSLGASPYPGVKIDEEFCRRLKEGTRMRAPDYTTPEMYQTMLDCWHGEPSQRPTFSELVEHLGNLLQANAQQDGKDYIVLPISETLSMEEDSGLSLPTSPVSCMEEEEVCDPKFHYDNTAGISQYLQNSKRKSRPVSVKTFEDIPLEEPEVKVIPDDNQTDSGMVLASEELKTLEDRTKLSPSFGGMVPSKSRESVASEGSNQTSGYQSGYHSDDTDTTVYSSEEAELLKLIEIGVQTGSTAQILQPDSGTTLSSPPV
# Sequence of c-Kit (P10721 26-976): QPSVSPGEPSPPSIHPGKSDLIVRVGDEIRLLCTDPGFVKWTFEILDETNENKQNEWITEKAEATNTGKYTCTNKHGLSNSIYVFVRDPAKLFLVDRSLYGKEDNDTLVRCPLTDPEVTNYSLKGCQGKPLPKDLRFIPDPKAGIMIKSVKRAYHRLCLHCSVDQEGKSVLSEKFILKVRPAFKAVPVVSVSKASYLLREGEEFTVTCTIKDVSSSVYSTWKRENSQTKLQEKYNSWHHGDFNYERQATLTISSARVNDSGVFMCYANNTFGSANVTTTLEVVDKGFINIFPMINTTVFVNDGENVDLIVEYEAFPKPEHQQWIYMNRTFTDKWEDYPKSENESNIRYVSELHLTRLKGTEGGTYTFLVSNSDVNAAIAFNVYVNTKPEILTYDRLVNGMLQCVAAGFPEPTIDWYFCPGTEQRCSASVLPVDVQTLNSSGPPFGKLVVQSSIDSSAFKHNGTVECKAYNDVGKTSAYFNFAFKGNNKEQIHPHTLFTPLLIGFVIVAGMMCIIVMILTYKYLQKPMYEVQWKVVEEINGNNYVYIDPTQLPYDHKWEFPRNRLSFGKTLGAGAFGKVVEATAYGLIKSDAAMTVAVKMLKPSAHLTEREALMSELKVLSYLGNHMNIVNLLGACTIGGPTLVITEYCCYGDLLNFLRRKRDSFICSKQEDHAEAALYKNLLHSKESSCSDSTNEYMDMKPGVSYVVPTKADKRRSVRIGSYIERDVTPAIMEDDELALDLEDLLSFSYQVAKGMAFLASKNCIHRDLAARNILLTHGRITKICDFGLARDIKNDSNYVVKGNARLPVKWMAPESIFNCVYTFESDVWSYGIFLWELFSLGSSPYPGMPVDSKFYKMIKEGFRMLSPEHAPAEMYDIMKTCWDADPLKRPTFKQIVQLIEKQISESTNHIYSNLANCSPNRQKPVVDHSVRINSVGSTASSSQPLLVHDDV
# Sequence of RET (P07949 29-1114, species assumed): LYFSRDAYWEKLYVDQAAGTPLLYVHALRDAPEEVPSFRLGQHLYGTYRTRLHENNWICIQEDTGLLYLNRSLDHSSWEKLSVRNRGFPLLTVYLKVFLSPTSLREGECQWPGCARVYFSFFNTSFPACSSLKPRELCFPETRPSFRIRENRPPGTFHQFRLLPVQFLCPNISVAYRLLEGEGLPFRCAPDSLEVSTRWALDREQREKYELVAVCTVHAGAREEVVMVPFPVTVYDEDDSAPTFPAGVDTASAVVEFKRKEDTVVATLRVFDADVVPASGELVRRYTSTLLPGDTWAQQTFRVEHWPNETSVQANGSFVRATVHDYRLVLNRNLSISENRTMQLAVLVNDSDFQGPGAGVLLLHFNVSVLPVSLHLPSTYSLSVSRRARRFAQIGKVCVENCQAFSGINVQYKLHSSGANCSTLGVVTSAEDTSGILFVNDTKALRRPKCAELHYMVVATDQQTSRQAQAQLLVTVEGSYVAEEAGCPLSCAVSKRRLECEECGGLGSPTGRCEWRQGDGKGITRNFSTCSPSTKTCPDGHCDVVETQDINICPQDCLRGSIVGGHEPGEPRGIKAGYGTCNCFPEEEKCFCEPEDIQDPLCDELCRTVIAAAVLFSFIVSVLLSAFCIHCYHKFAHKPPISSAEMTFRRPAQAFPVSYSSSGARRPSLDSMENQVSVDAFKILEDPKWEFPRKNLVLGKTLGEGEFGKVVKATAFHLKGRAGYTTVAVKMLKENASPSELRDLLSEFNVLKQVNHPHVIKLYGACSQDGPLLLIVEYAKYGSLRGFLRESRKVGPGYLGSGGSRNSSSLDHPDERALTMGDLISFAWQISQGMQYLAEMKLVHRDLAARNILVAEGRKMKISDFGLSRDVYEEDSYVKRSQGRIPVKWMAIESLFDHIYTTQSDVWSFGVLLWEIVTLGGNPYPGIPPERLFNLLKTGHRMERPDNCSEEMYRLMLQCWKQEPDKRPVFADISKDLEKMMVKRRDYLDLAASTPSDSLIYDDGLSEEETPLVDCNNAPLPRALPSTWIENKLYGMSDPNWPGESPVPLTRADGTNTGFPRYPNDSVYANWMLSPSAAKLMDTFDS
smiles,measurement,setting,value
"COCCOCCOCCNC(=O)c1c(C)[nH]c(/C=C2\C(=O)Nc3ccc(F)cc32)c1C [mPEG3-semaxanib, (Z)-5-((5-fluoro-2-oxoindolin-3-ylidene)methyl)-2,4-dimethyl-1H-pyrrole-3-mPEG3-amide]",pIC50,[1],6.92
same,c-Kit AVG % Activity at Specific Concentration,[1]; [4],−1%
same,c-Kit AVG % Activity at Specific Concentration,[1]; [5],2%
same,c-Kit AVG % Activity at Specific Concentration,[1]; [6],58%
same,c-Kit AVG % Activity at Specific Concentration,[1]; [7],97%
same,c-Kit AVG % Activity at Specific Concentration,[1]; [8],104%
same,c-Kit AVG % Activity at Specific Concentration,[1]; [9],100%
same,c-Kit AVG % Activity at Specific Concentration,[1]; [10],−1%
same,c-Kit AVG % Activity at Specific Concentration,[1]; [11],1%
same,c-Kit AVG % Activity at Specific Concentration,[1]; [12],16%
same,c-Kit AVG % Activity at Specific Concentration,[1]; [13],88%
same,c-Kit AVG % Activity at Specific Concentration,[1]; [14],98%
same,c-Kit AVG % Activity at Specific Concentration,[1]; [15],102%
same,c-Kit Fold,[1],1.60
same,pIC50,[2],6.96
same,VEGFR-2 AVG % Activity at Specific Concentration,[2]; [4],−3%
same,VEGFR-2 AVG % Activity at Specific Concentration,[2]; [5],0%
same,VEGFR-2 AVG % Activity at Specific Concentration,[2]; [6],47%
same,VEGFR-2 AVG % Activity at Specific Concentration,[2]; [7],90%
same,VEGFR-2 AVG % Activity at Specific Concentration,[2]; [8],87%
same,VEGFR-2 AVG % Activity at Specific Concentration,[2]; [9],93%
same,VEGFR-2 AVG % Activity at Specific Concentration,[2]; [10],−6%
same,VEGFR-2 AVG % Activity at Specific Concentration,[2]; [11],−3%
same,VEGFR-2 AVG % Activity at Specific Concentration,[2]; [12],16%
same,VEGFR-2 AVG % Activity at Specific Concentration,[2]; [13],78%
same,VEGFR-2 AVG % Activity at Specific Concentration,[2]; [14],90%
same,VEGFR-2 AVG % Activity at Specific Concentration,[2]; [15],93%
same,VEGFR-2 Fold,[2],2.24
same,pIC50,[3],6.64
same,RET AVG % Activity at Specific Concentration,[3]; [4],−1%
same,RET AVG % Activity at Specific Concentration,[3]; [5],12%
same,RET AVG % Activity at Specific Concentration,[3]; [6],68%
same,RET AVG % Activity at Specific Concentration,[3]; [7],96%
same,RET AVG % Activity at Specific Concentration,[3]; [8],92%
same,RET AVG % Activity at Specific Concentration,[3]; [9],92%
same,RET AVG % Activity at Specific Concentration,[3]; [10],−1%
same,RET AVG % Activity at Specific Concentration,[3]; [11],3%
same,RET AVG % Activity at Specific Concentration,[3]; [12],38%
same,RET AVG % Activity at Specific Concentration,[3]; [13],90%
same,RET AVG % Activity at Specific Concentration,[3]; [14],95%
same,RET AVG % Activity at Specific Concentration,[3]; [15],94%
same,RET Fold,[3],5.35
"COCCOCCOCCOCCNC(=O)c1c(C)[nH]c(/C=C2\C(=O)Nc3ccc(F)cc32)c1C [mPEG4-semaxanib, (Z)-5-((5-fluoro-2-oxoindolin-3-ylidene)methyl)-2,4-dimethyl-1H-pyrrole-3-mPEG4-amide]",pIC50,[1],6.77
same,c-Kit AVG % Activity at Specific Concentration,[1]; [4],−1%
same,c-Kit AVG % Activity at Specific Concentration,[1]; [5],3%
same,c-Kit AVG % Activity at Specific Concentration,[1]; [6],70%
same,c-Kit AVG % Activity at Specific Concentration,[1]; [7],97%
same,c-Kit AVG % Activity at Specific Concentration,[1]; [8],99%
same,c-Kit AVG % Activity at Specific Concentration,[1]; [9],97%
same,c-Kit AVG % Activity at Specific Concentration,[1]; [10],−1%
same,c-Kit AVG % Activity at Specific Concentration,[1]; [11],−1%
same,c-Kit AVG % Activity at Specific Concentration,[1]; [12],24%
same,c-Kit AVG % Activity at Specific Concentration,[1]; [13],94%
same,c-Kit AVG % Activity at Specific Concentration,[1]; [14],93%
same,c-Kit AVG % Activity at Specific Concentration,[1]; [15],100%
same,c-Kit Fold,[1],2.30
same,pIC50,[2],6.74
same,VEGFR-2 AVG % Activity at Specific Concentration,[2]; [4],−4%
same,VEGFR-2 AVG % Activity at Specific Concentration,[2]; [5],12%
same,VEGFR-2 AVG % Activity at Specific Concentration,[2]; [6],56%
same,VEGFR-2 AVG % Activity at Specific Concentration,[2]; [7],88%
same,VEGFR-2 AVG % Activity at Specific Concentration,[2]; [8],92%
same,VEGFR-2 AVG % Activity at Specific Concentration,[2]; [9],86%
same,VEGFR-2 AVG % Activity at Specific Concentration,[2]; [10],−6%
same,VEGFR-2 AVG % Activity at Specific Concentration,[2]; [11],−4%
same,VEGFR-2 AVG % Activity at Specific Concentration,[2]; [12],35%
same,VEGFR-2 AVG % Activity at Specific Concentration,[2]; [13],89%
same,VEGFR-2 AVG % Activity at Specific Concentration,[2]; [14],96%
same,VEGFR-2 AVG % Activity at Specific Concentration,[2]; [15],97%
same,VEGFR-2 Fold,[2],3.67
same,pIC50,[3],6.46
same,RET AVG % Activity at Specific Concentration,[3]; [4],0%
same,RET AVG % Activity at Specific Concentration,[3]; [5],22%
same,RET AVG % Activity at Specific Concentration,[3]; [6],78%
same,RET AVG % Activity at Specific Concentration,[3]; [7],99%
same,RET AVG % Activity at Specific Concentration,[3]; [8],89%
same,RET AVG % Activity at Specific Concentration,[3]; [9],100%
same,RET AVG % Activity at Specific Concentration,[3]; [10],−1%
same,RET AVG % Activity at Specific Concentration,[3]; [11],5%
same,RET AVG % Activity at Specific Concentration,[3]; [12],52%
same,RET AVG % Activity at Specific Concentration,[3]; [13],95%
same,RET AVG % Activity at Specific Concentration,[3]; [14],100%
same,RET AVG % Activity at Specific Concentration,[3]; [15],99%
same,RET Fold,[3],8.14
"COCCOCCOCCOCCOCCNC(=O)c1c(C)[nH]c(/C=C2\C(=O)Nc3ccc(F)cc32)c1C [mPEG5-semaxanib, (Z)-5-((5-fluoro-2-oxoindolin-3-ylidene)methyl)-2,4-dimethyl-1H-pyrrole-3-mPEG5-amide]",pIC50,[1],6.64
same,c-Kit AVG % Activity at Specific Concentration,[1]; [4],−1%
same,c-Kit AVG % Activity at Specific Concentration,[1]; [5],6%
same,c-Kit AVG % Activity at Specific Concentration,[1]; [6],76%
same,c-Kit AVG % Activity at Specific Concentration,[1]; [7],106%
same,c-Kit AVG % Activity at Specific Concentration,[1]; [8],100%
same,c-Kit AVG % Activity at Specific Concentration,[1]; [9],90%
same,c-Kit AVG % Activity at Specific Concentration,[1]; [10],−1%
same,c-Kit AVG % Activity at Specific Concentration,[1]; [11],0%
same,c-Kit AVG % Activity at Specific Concentration,[1]; [12],37%
same,c-Kit AVG % Activity at Specific Concentration,[1]; [13],96%
same,c-Kit AVG % Activity at Specific Concentration,[1]; [14],99%
same,c-Kit AVG % Activity at Specific Concentration,[1]; [15],99%
same,c-Kit Fold,[1],3.10
same,pIC50,[3],6.36
same,RET AVG % Activity at Specific Concentration,[3]; [4],0%
same,RET AVG % Activity at Specific Concentration,[3]; [5],29%
same,RET AVG % Activity at Specific Concentration,[3]; [6],84%
same,RET AVG % Activity at Specific Concentration,[3]; [7],99%
same,RET AVG % Activity at Specific Concentration,[3]; [8],98%
same,RET AVG % Activity at Specific Concentration,[3]; [9],98%
same,RET AVG % Activity at Specific Concentration,[3]; [10],−1%
same,RET AVG % Activity at Specific Concentration,[3]; [11],6%
same,RET AVG % Activity at Specific Concentration,[3]; [12],59%
same,RET AVG % Activity at Specific Concentration,[3]; [13],95%
same,RET AVG % Activity at Specific Concentration,[3]; [14],102%
same,RET AVG % Activity at Specific Concentration,[3]; [15],99%
same,RET Fold,[3],10.23
"COCCOCCOCCOCCOCCOCCNC(=O)c1c(C)[nH]c(/C=C2\C(=O)Nc3ccc(F)cc32)c1C [mPEG6-semaxanib, (Z)-5-((5-fluoro-2-oxoindolin-3-ylidene)methyl)-2,4-dimethyl-1H-pyrrole-3-mPEG6-amide]",pIC50,[1],6.54
same,c-Kit AVG % Activity at Specific Concentration,[1]; [4],−1%
same,c-Kit AVG % Activity at Specific Concentration,[1]; [5],8%
same,c-Kit AVG % Activity at Specific Concentration,[1]; [6],79%
same,c-Kit AVG % Activity at Specific Concentration,[1]; [7],94%
same,c-Kit AVG % Activity at Specific Concentration,[1]; [8],97%
same,c-Kit AVG % Activity at Specific Concentration,[1]; [9],91%
same,c-Kit AVG % Activity at Specific Concentration,[1]; [10],−1%
same,c-Kit AVG % Activity at Specific Concentration,[1]; [11],0%
same,c-Kit AVG % Activity at Specific Concentration,[1]; [12],44%
same,c-Kit AVG % Activity at Specific Concentration,[1]; [13],95%
same,c-Kit AVG % Activity at Specific Concentration,[1]; [14],99%
same,c-Kit AVG % Activity at Specific Concentration,[1]; [15],87%
same,c-Kit Fold,[1],3.90
same,VEGFR-2 AVG % Activity at Specific Concentration,[2],96% and 93%

# Source: patent publication US11007270B2, “Polymer-semaxanib moiety conjugates” (Nektar Therapeutics, priority 2010, dated 2021)
